Results reported in patent US4605744A, “Imidazole derivatives” (Hoffmann-La Roche Inc., priority 1985, dated 1986).
In brackets after ≈: the same amount, converted by molar mass. Counter-ions that a name gives are not always drawn. Like-named read-outs stand apart in the source and are kept apart here.

How the values were obtained:
Test in all cases: In vitro antibacterial activity (MIC)
Type in all cases: cell-based
[1] = tested on: S. marcescens S147; details: Serratia marcescens; S. marcescens S147; read-out: MIC
Method in brief: (§1)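 Broth microdilution in Mueller-Hinton broth, drug range 128 to 0.008 μg/ml; each well inoculated with 1.5 μl of a 10^-2 dilution of overnight culture. Sealed trays incubated overnight at 37° C. MIC is the lowest concentration showing no visible growth.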

[2] = tested on: P. aeruginosa 6148B; details: Pseudomonas aeruginosa, read-out: MIC
Method in brief: as §1

[3] = tested on: P. mirabilis 90; details: Proteus mirabilis, 90, P. mirabilis 90; read-out: MIC
Method in brief: as §1

[4] = tested on: P. vulgaris 101; details: Proteus vulgaris, 101, P. vulgaris 101; read-out: MIC
Method in brief: as §1

[5] = tested on: E. coli 4; details: Escherichia coli, 4, E. coli 4; read-out: MIC
Method in brief: as §1

[6] = tested on: E. cloacae 5699; details: Enterobacter cloacae, 5699, E. cloacae 5699; read-out: MIC
Method in brief: as §1

[7] = tested on: C. diversus CDC 1663-72; details: Citrobacter koseri, CDC166372
Method in brief: as §1

[8] = tested on: K. pneumoniae 35; details: Klebsiella pneumoniae; K. pneumoniae 35; read-out: MIC
Method in brief: as §1

[9] = tested on: P. mirabilis 190; details: Proteus mirabilis, 190, P. mirabilis 190; read-out: MIC
Method in brief: as §1

[10] = tested on: E. coli 48; details: Escherichia coli, 48, E. coli 48; read-out: MIC
Method in brief: as §1

[11] = tested on: S. faecalis C1; details: Enterococcus faecalis; S. faecalis C1; read-out: MIC
Method in brief: as §1

[12] = tested on: E. cloacae 9295; details: Enterobacter cloacae, 9295, E. cloacae 9295; read-out: MIC
Method in brief: as §1

[13] = tested on: S. pneumoniae 6301; details: Streptococcus pneumoniae, 6301, S. pneumoniae 6301; read-out: MIC
Method in brief: as §1

[14] = tested on: S. schottmuelleri; details: read-out: MIC
Method in brief: as §1

[15] = tested on: E. cloacae P99; details: Enterobacter cloacae, P99, E. cloacae P99
Method in brief: as §1

[16] = tested on: C. freundii CDC6; details: Citrobacter freundii
Method in brief: as §1

[17] = tested on: S. marcescens S714; details: Serratia marcescens, S714, S. marcescens S714; read-out: MIC
Method in brief: as §1

[18] = tested on: C. freundii 8ASM; details: Citrobacter freundii, 8ASM, C. freundii 8ASM; read-out: MIC
Method in brief: as §1

[19] = tested on: E. aerogenes 503-478; details: Klebsiella aerogenes, 503478, E. aerogenes 503-478; read-out: MIC
Method in brief: as §1

[20] = tested on: S. marcescens S1; details: Serratia marcescens, S1, S. marcescens S1; read-out: MIC
Method in brief: as §1

[21] = tested on: S. pneumoniae SC; details: Streptococcus pneumoniae, read-out: MIC
Method in brief: as §1

[22] = tested on: S. marcescens S2; details: Serratia marcescens; S. marcescens S2; read-out: MIC
Method in brief: as §1

[23] = tested on: P. aeruginosa 5700; details: Pseudomonas aeruginosa, 5700, P. aeruginosa 5700; read-out: MIC
Method in brief: as §1

[24] = tested on: E. coli 5152; details: Escherichia coli, 5152, E. coli 5152; read-out: MIC
Method in brief: as §1

[25] = tested on: S. marcescens S3; details: Serratia marcescens; S. marcescens S3; read-out: MIC
Method in brief: as §1

[26] = tested on: P. mirabilis 620A; details: Proteus mirabilis, 620A, P. mirabilis 620A; read-out: MIC
Method in brief: as §1

[27] = tested on: K. pneumoniae 5096; details: Klebsiella pneumoniae; K. pneumoniae 5096; read-out: MIC
Method in brief: as §1

[28] = tested on: E. coli 503-455; details: Escherichia coli, 503455, E. coli 503-455; read-out: MIC
Method in brief: as §1

[29] = tested on: E. coli 387-1
Method in brief: as §1

[30] = tested on: S. marcescens S4; details: Serratia marcescens, S4, S. marcescens S4; read-out: MIC
Method in brief: as §1

[31] = tested on: S. pyogenes 503-782; details: Streptococcus pyogenes, 503782; S. pyogenes 503-782; read-out: MIC
Method in brief: as §1

[32] = tested on: S. marcescens S5; details: Serratia marcescens, S5, S. marcescens S5; read-out: MIC
Method in brief: as §1

[33] = tested on: S. pyogenes 4; details: Streptococcus pyogenes, 4, S. pyogenes 4; read-out: MIC
Method in brief: as §1

[34] = tested on: P. aeruginosa 8710; details: Pseudomonas aeruginosa; P. aeruginosa 8710; read-out: MIC
Method in brief: as §1

[35] = tested on: E. cloacae 214
Method in brief: as §1

[36] = tested on: E. cloacae 9570A; details: Enterobacter cloacae, read-out: MIC
Method in brief: as §1

[37] = tested on: E. coli R-563; details: Escherichia coli
Method in brief: as §1

[38] = tested on: P. vulgaris 100; details: Proteus vulgaris; P. vulgaris 100; read-out: MIC
Method in brief: as §1

[39] = tested on: P. aeruginosa 8780; details: Pseudomonas aeruginosa; P. aeruginosa 8780; read-out: MIC
Method in brief: as §1

[40] = tested on: E. aerogenes 83; details: Klebsiella aerogenes, 83, E. aerogenes 83; read-out: MIC
Method in brief: as §1

[41] = tested on: K. pneumoniae 503-964; details: Klebsiella pneumoniae, 503964; K. pneumoniae 503-964; read-out: MIC
Method in brief: as §1

[42] = tested on: P. aeruginosa 503-820; details: Pseudomonas aeruginosa, 503820; P. aeruginosa 503-820; read-out: MIC
Method in brief: as §1

[43] = tested on: S. pneumoniae 6302; details: Streptococcus pneumoniae, 6302, S. pneumoniae 6302; read-out: MIC
Method in brief: as §1

[44] = tested on: K. pneumoniae 4964; details: Klebsiella pneumoniae, 4964, K. pneumoniae 4964; read-out: MIC
Method in brief: as §1

[45] = tested on: S. aureus Giorgio; details: Staphylococcus aureus, S. aureus Giorgio; read-out: MIC
Method in brief: as §1

CC1(C)S[C@@H]2[C@H](N=CN3CCC(CCCn4ccnc4)CC3)C(=O)N2[C@H]1C(=O)O [C, [2S-(2alpha,5alpha,6beta)]-6-[[4-[3-(1H-imidazol-1-yl)propyl]-1-piperidinyl]methylene]amino]-3,3-dimethyl-7-oxo-4-thia-1-azabicyclo[3.2.0]heptane-2-carboxylic acid 1.2 mole hydrochloride monohydrate]
MIC [1]: 16 µg/mL | MIC [2]: > 128 µg/mL | MIC [3]: 32 µg/mL | MIC [4]: 128 µg/mL | MIC [5]: 8 µg/mL | MIC [6]: 16 µg/mL | MIC ([7]; C. diversus CDC 1663-72, read-out: MIC): 4 µg/mL | MIC [8]: 8 µg/mL | MIC [9]: 8 µg/mL | MIC [10]: 2 µg/mL | MIC [11]: > 128 µg/mL | MIC [12]: 16 µg/mL | MIC [13]: 128 µg/mL | MIC [14]: 4 µg/mL | MIC [15]: 8 µg/mL | MIC ([16]; CDC6, C. freundii CDC6, read-out: MIC): 16 µg/mL | MIC [17]: 32 µg/mL | MIC [18]: 4 µg/mL | MIC [19]: 128 µg/mL | MIC [20]: 128 µg/mL | MIC [21]: 64 µg/mL | MIC [22]: 16 µg/mL | MIC [23]: 16 µg/mL | MIC [24]: > 128 µg/mL | MIC [25]: 16 µg/mL | MIC [26]: > 128 µg/mL | MIC [27]: > 128 µg/mL | MIC [28]: 128 µg/mL | MIC ([29]; Escherichia coli, 3871, E. coli 387-1, read-out: MIC): 8 µg/mL | MIC [30]: 32 µg/mL | MIC [31]: > 128 µg/mL | MIC [32]: 64 µg/mL | MIC [33]: 64 µg/mL | MIC [34]: > 128 µg/mL | MIC ([35]; Enterobacter cloacae, 214, E. cloacae 214, read-out: MIC): 16 µg/mL | MIC [36]: 16 µg/mL | MIC ([37]; R563, E. coli R-563, read-out: MIC): 4 µg/mL | MIC [38]: > 128 µg/mL | MIC [39]: > 128 µg/mL | MIC [40]: > 128 µg/mL | MIC [41]: 8 µg/mL | MIC [42]: > 128 µg/mL | MIC [43]: 128 µg/mL | MIC [44]: > 128 µg/mL | MIC [45]: > 128 µg/mL

CC1(C)S[C@@H]2[C@H](N=CN3CCC(Cn4ccnc4)CC3)C(=O)N2[C@H]1C(=O)O [Compound A]
MIC [1]: 0.25 µg/mL (≈ 0.639 µM) | MIC [2]: > 128 µg/mL | MIC [3]: 1 µg/mL (≈ 2.55 µM) | MIC [4]: 16 µg/mL (≈ 40.9 µM) | MIC [5]: 0.062 µg/mL (≈ 0.158 µM) | MIC [6]: 0.5 µg/mL (≈ 1.28 µM) | MIC [7]: 0.125 µg/mL (≈ 0.319 µM) | MIC [8]: 0.25 µg/mL (≈ 0.639 µM) | MIC [9]: 0.25 µg/mL (≈ 0.639 µM) | MIC [10]: 0.062 µg/mL (≈ 0.158 µM) | MIC [11]: 128 µg/mL (≈ 327 µM) | MIC [12]: 0.5 µg/mL (≈ 1.28 µM) | MIC [13]: 1 µg/mL (≈ 2.55 µM) | MIC [14]: 0.125 µg/mL (≈ 0.319 µM) | MIC [15]: 0.25 µg/mL (≈ 0.639 µM) | MIC ([16]; CDC6): 0.125 µg/mL (≈ 0.319 µM) | MIC [17]: 1 µg/mL (≈ 2.55 µM) | MIC [18]: 0.062 µg/mL (≈ 0.158 µM) | MIC [19]: 0.062 µg/mL (≈ 0.158 µM) | MIC [20]: 0.25 µg/mL (≈ 0.639 µM) | MIC [21]: 2 µg/mL (≈ 5.11 µM) | MIC [22]: 0.25 µg/mL (≈ 0.639 µM) | MIC [23]: 0.25 µg/mL (≈ 0.639 µM) | MIC [24]: 16 µg/mL (≈ 40.9 µM) | MIC [25]: 0.25 µg/mL (≈ 0.639 µM) | MIC [26]: 16 µg/mL (≈ 40.9 µM) | MIC [27]: 64 µg/mL (≈ 163 µM) | MIC [28]: 2 µg/mL (≈ 5.11 µM) | MIC ([29]; Escherichia coli, 3871): 0.125 µg/mL (≈ 0.319 µM) | MIC [30]: 1 µg/mL (≈ 2.55 µM) | MIC [31]: 128 µg/mL (≈ 327 µM) | MIC [32]: 2 µg/mL (≈ 5.11 µM) | MIC [33]: 1 µg/mL (≈ 2.55 µM) | MIC [34]: > 128 µg/mL | MIC ([35]; Enterobacter cloacae, 214): 0.125 µg/mL (≈ 0.319 µM) | MIC [36]: 0.5 µg/mL (≈ 1.28 µM) | MIC ([37]; R563): 0.125 µg/mL (≈ 0.319 µM) | MIC [38]: 8 µg/mL (≈ 20.4 µM) | MIC [39]: > 128 µg/mL | MIC [40]: 2 µg/mL (≈ 5.11 µM) | MIC [41]: 0.016 µg/mL (≈ 0.0409 µM) | MIC [42]: > 128 µg/mL | MIC [43]: 2 µg/mL (≈ 5.11 µM) | MIC [44]: 2 µg/mL (≈ 5.11 µM) | MIC [45]: 8 µg/mL (≈ 20.4 µM)
